The source made the active and inactive calls. The rule behind the calls is not given here.
Legend:
Mus musculus [1] = assay: Antiinflammatory activity in arachidonic acid-induced ear dermatitis ICR mouse model assessed as reduction in ear swelling at 1 mg administered twice tropically 30 mins prior and 15 mins after arachidonic acid addition measured 60 mins post arachidonic acid challenge relative to control; assay type: functional
Mus musculus [2] = assay: Antiinflammatory activity in arachidonic acid-induced ear dermatitis ICR mouse model assessed as reduction in ear swelling at 0.1 mg administered twice tropically 30 mins prior and 15 mins after arachidonic acid addition measured 60 mins post arachidonic acid challenge relative to control; assay type: functional
[3] = Displacement of [3H]DPDPE from delta-type opioid receptor in guinea pig brain membranes after 120 mins by solid scintillation counting; assay type: cell membranes, Cavia porcellus, Membrane
Mus musculus [4] = assay: Antiinflammatory activity in arachidonic acid-induced ear dermatitis ICR mouse model assessed as reduction in ear swelling at 3 mg administered twice tropically 30 mins prior and 15 mins after arachidonic acid addition measured 60 mins post arachidonic acid challenge relative to control; assay type: functional
Mus musculus [5] = assay: Antiinflammatory activity in arachidonic acid-induced ear dermatitis ICR mouse model assessed as reduction in ear swelling at 0.3 mg administered twice tropically 30 mins prior and 15 mins after arachidonic acid addition measured 60 mins post arachidonic acid challenge relative to control; assay type: functional
[6] = target: Kappa-type opioid receptor (Cavia porcellus, UniProt P41144); assay: Displacement of [3H]U-69,593 from kappa-type opioid receptor in guinea pig brain membranes after 120 mins by solid scintillation counting; assay type: cell membranes, Membrane
Sequence of Kappa-type opioid receptor (Cavia porcellus, UniProt P41144) (P41144 whole entry): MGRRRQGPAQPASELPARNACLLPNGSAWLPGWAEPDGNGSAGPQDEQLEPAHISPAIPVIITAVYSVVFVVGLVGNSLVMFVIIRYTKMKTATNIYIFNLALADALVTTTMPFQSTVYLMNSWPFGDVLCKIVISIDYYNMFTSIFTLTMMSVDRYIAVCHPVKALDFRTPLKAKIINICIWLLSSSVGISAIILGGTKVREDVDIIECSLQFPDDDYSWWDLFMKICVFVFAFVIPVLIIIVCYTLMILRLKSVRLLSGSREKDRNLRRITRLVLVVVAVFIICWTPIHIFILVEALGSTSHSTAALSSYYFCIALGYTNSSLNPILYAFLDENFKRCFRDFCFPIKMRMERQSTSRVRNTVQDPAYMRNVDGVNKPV

[7] = target: Kappa-type opioid receptor (Homo sapiens, UniProt P41145); assay: Agonist activity at recombinant human kappa-type opioid receptor expressed in HEK293 cells after 30 mins by [35S]GTPgammaS binding assay; assay type: functional, cell-based
Sequence of Kappa-type opioid receptor (Homo sapiens, UniProt P41145) (P41145 whole entry): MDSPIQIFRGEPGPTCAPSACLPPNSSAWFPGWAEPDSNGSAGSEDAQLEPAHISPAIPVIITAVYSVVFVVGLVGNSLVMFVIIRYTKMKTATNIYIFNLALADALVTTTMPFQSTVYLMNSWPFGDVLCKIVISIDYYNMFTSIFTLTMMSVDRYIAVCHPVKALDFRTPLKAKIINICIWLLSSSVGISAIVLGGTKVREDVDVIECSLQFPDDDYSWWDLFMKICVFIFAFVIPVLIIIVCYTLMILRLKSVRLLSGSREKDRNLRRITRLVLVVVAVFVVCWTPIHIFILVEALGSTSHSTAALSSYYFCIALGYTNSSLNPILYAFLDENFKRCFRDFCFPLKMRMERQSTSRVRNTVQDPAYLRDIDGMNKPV

Mus musculus [8] = assay: Toxicity in arachidonic acid-induced ear dermatitis ICR mouse model assessed as induction of modest to severe behaviour depression at 0.1 mg to 3 mg administered twice tropically 30 mins prior and 15 mins after arachidonic acid addition measured 60 mins post arachidonic acid challenge; details: in vivo, topical_or_ocular, 1 h
[9] = Lipophilicity, logD of the compound at pH 7.4 by LC/MS analysis; assay type: physicochemical; details: buffer
Mus musculus [10] = assay: (§1) Antiinflammatory activity in tropically administered oxazolone-induced delayed type hypersensitivity BALB/c mouse model assessed as reduction in CD8+ cells per 0.1 mm2 at 2.5 mg administered 3 hrs prior to oxazolone challenge on day 7 to 12 post sensitization followed by re-administration of compound on day 13 to 18 without oxazolone challenge measured on day 19 by DAPI-staining based fluorescence microscopic analysis relative to control; assay type: functional
Mu-type opioid receptor = Mu-type opioid receptor (Cavia porcellus, UniProt P97266); assay: Displacement of [3H]DAMGO from mu-type opioid receptor in guinea pig brain membranes after 120 mins by solid scintillation counting; assay type: cell membranes, Membrane
Sequence of Mu-type opioid receptor (P97266 whole entry): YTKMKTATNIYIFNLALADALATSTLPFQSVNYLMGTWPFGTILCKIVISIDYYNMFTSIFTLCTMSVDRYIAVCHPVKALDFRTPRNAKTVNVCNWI

Mus musculus [11] = assay: as §1, with “CD4+” for “CD8+”; assay type: functional
[12] = Displacement of [3H]-DTG from sigma 2 receptor in rat liver membranes after 120 mins by scintillation counting; assay type: cell membranes, Membrane
Mus musculus [13] = assay: CNS toxicity in sc dosed mouse model of acetic acid-induced writhing assessed as lowest dose causing side effects; assay type: organism-based; details: in vivo
Mus musculus [14] = assay: (§2) Antiinflammatory activity in oxazolone-induced delayed type hypersensitivity BALB/c mouse model assessed as ear weight at 2.5 mg applied topically on ear administered 3 hrs prior to oxazolone challenge on day 7 to 12 post sensitization followed by re-administration of compound on day 13 to 18 without oxazolone challenge measured on day 19 (reference value: 30.2 +/- 0.7 mg); assay type: functional
Mus musculus [15] = assay: as §2, with “0.5” for “2.5”; assay type: functional
Mus musculus [16] = assay: Antinociceptive activity in sc dosed mouse model of acetic acid-induced writhing; assay type: functional
Mus musculus [17] = assay: as §2, with “thickness level” for “weight”, “0.6” for “2.5”, “by H and E staining based assay” for “(reference value: 30.2 +/- 0.7 mg)”; assay type: functional
Mus musculus [18] = assay: as §2, with “neutrophil dermal infiltration” for “ear weight”, “0.6” for “2.5”, “by H and E staining based assay” for “(reference value: 30.2 +/- 0.7 mg)”; assay type: functional
Mus musculus [19] = assay: as §2, with “0.6” for “2.5”; assay type: functional
Mus musculus [20] = assay: as §2, with “swelling” for “weight”, “0.6” for “2.5”, “13” for “19”, “666” for “30.2”, “28 micrometer)” for “0.7 mg)”; assay type: functional
Mus musculus [21] = assay: as §2, with “lymphocyte dermal infiltration” for “ear weight”, “0.6” for “2.5”, “by H and E staining based assay” for “(reference value: 30.2 +/- 0.7 mg)”; assay type: functional
Mus musculus [22] = assay: as §2, with “mast cell dermal infiltration” for “ear weight”, “0.6” for “2.5”, “by H and E staining based assay” for “(reference value: 30.2 +/- 0.7 mg)”; assay type: functional
Mus musculus [23] = assay: as §2, with “hyperplastic epidrmis” for “ear weight”, “0.6” for “2.5”, “by H and E staining based assay” for “(reference value: 30.2 +/- 0.7 mg)”; assay type: functional
Mus musculus [24] = assay: as §2, with “swelling” for “weight”, “0.6” for “2.5”, “242” for “30.2”, “11 micrometer)” for “0.7 mg)”; assay type: functional
Rattus norvegicus [25] = assay: Toxicity in Wistar Han rat assessed as induction of hunched or abnormal posture at 0.3 mg/kg, iv measured up to 2 hrs; assay type: organism-based; details: in vivo
[26] = Ratio of drug level in brain to plasma in Wistar Han rat at 0.3 mg/kg, iv after 0.25 hrs; assay type: ADME, organism-based; details: read-out: BPR
[27] = Plasma concentration in Wistar Han rat at 0.3 mg/kg, iv measured 1 hr post compound administration; assay type: ADME, organism-based
[28] = Plasma concentration in Wistar Han rat at 0.3 mg/kg, iv measured 0.25 hrs post compound administration; assay type: ADME, organism-based
Rattus norvegicus [29] = assay: Toxicity in Wistar Han rat assessed as induction of lethargy at 0.3 mg/kg, iv measured up to 2 hrs; assay type: organism-based; details: in vivo
[30] = Drug level in Wistar Han rat brain at 0.3 mg/kg, iv measured 1 hr post compound administration; assay type: ADME, organism-based; details: read-out: Drug uptake
[31] = Ratio of drug level in brain to plasma in Wistar Han rat at 0.3 mg/kg, iv after 1 hr; assay type: ADME, organism-based; details: read-out: BPR

## COC(=O)N1CCN(C(=O)Cc2ccc(F)c(Cl)c2)[C@@H]2[C@@H](N3CC[C@H](F)C3)CCC[C@@H]21
Mus musculus [1]
  inhibition (INH): 66%
Mus musculus [2]
  inhibition (INH): 25%
[3]
  Ki: 74 nM
Mus musculus [4]
  inhibition (INH): 60%
Mus musculus [5]
  inhibition (INH): 40%
[6]
  Ki: 0.56 nM
[7]
  EC50: 0.4 nM
Mus musculus [8]
  Activity: Toxic

## CS(=O)(=O)N1CCN(C(=O)Cc2ccc(Cl)c(Cl)c2)[C@@H]2[C@@H](N3CC[C@H](O)C3)CCC[C@@H]21
[9]
  logD: 2.41
Mus musculus [1]
  inhibition (INH): 32%
Mus musculus [10]
  inhibition (INH): 45%
Mus musculus [2]
  inhibition (INH): -4%
[3]
  Ki: 367 nM
Mus musculus [4]
  inhibition (INH): 56%
Mu-type opioid receptor
  Ki: 336 nM
Mus musculus [11]
  inhibition (INH): 45%
Mus musculus [5]
  inhibition (INH): -4%
[6]
  Ki: 0.63 nM
[7]
  EC50: 1.8 nM

## COC(=O)N1CCN(C(=O)Cc2ccc(Cl)c(Cl)c2)[C@@H]2[C@@H](N3CCCC3)CCC[C@@H]21
Mus musculus [1]
  inhibition (INH): 27%
[12]
  Ki: 252 nM
Mus musculus [13]
  MTC: 0.06 mg/kg
Mus musculus [14]
  Activity: 28.2 mg
Mus musculus [15]
  Activity: 27.5 mg
Mus musculus [2]
  inhibition (INH): 23%
Mus musculus [4]
  inhibition (INH): 51%
Mus musculus [16]
  ED50: 0.26 mg/kg
Mus musculus [5]
  inhibition (INH): 27%

## C[C@]12CCC(=O)C=C1CC[C@@H]1[C@@H]2[C@@H](O)C[C@@]2(C)[C@H]1CC[C@]2(O)C(=O)CO [HYDROCORTISONE]
Mus musculus [17]
  Activity: Active
Mus musculus [18]
  Activity: Active
Mus musculus [19]
  Activity: 17.2 mg
Mus musculus [20]
  Activity: 332 um
Mus musculus [21]
  Activity: Active
Mus musculus [22]
  Activity: Active
Mus musculus [23]
  Activity: Active
Mus musculus [24]
  Activity: 66 um

## COC(=O)N1CCN(C(=O)Cc2ccc(Cl)c(Cl)c2)[C@@H]2[C@@H](N3CCCC3)CCC[C@@H]21.Cl
Rattus norvegicus [25]
  Activity: Toxic
[26]
  Kp at 0.25 h: 0.5
[27]
  concentration at 1 h: 37.3 ng/mL
[28]
  concentration at 0.25 h: 117 ng/mL
Rattus norvegicus [29]
  Activity: Toxic
[30]
  concentration at 1 h: 24.2 ng/g
[31]
  Kp at 1 h: 0.65

Source: ChEMBL document CHEMBL4007424, “Design and Synthesis of Enantiomerically Pure Decahydroquinoxalines as Potent and Selective κ-Opioid Receptor Agonists with Anti-Inflammatory Activity in Vivo” (J Med Chem, 2017)
